Reference: patent US9096550B2, “Bryostatin analogues and methods of making and using thereof” (UNIVERSITY OF UTAH RESEARCH FOUNDATION, priority 2008, dated 2015)
Read-outs that look alike come from different tables or passages of the source.

Columns and labels:
Assay type in all cases: cell-based, human
[1] = tested on: LNCaP cells; assay: Early morphology change (cell flattening) of LNCaP cells by Incucyte imaging
Description: FIGS. 13A and 13B show the proliferation and morphology of LNCaP cells detected by Incucyte. LNCaP cells were treated with DMSO as control, 300 nM PMA, 1000 nM bryostatin 1 or the bryologue MERLE 21, or with 300 nM PMA in combination with 1000 nM bryostatin 1 or the bryologue MERLE 21. Time-elapsed images were taken by the Incucyte imaging system every hour. […] The arrow indicates the time of treatment. Data are representative of three independent experiments.
The extent of confluency of LNCaP cells (from ATCC, Manassas, Va.) and the morphological changes after treatment were followed in real time using Incucyte (Essen Instruments, Ann Arbor, Mich.). […] The confluency of the cells was calculated by the instrument's program. The proliferation of LNCaP cells was expressed as the difference in cell confluency before and after treatment.
The above measurements were determined at fixed times after compound addition, 80 hr for proliferation and 48 hr for apoptosis. Cell growth was monitored continuously using an Incucyte live cell imaging system. […] At early times (0-6 hrs after treatment), the imaging also detected a transient response, reflecting a change in cell morphology induced by the compounds, superimposed on the slower change in the signal reflecting proliferation. […]

[2] = tested on: U937 cells; assay: Inhibition of U937 cell proliferation; conditions: for inhibition of U937 cell proliferation: compound alone
Description: U937 cells (Sundstrom, C.; Nilsson, K.: Establishment and characterization of a human histiocytic lymphoma cell line (U-937). Int. J. Cancer 1976, 17: 565-577.), purchased from ATCC (Manassas, Va.) and cultured in RPMI-1640 medium supplemented with 10% FBS (ATCC, Manassas, Va.), were plated in 35 mm dishes at a density of 2×10^5 living cells/ml and treated with different concentrations of the drugs or DMSO. After 72 hours, the number of cells in the supernatant (non-attached cells) and the number of attached cells (after trypsinization) were counted using a Beckman particle counter (Beckman Coulter Inc., Fullerton, Calif.). The number of attached cells is expressed as percent of total cells (FIGS. 8-10).
(§1) U937 cells were treated with PMA (0.1-100 nM), bryostatin 1 (1-1000 nM), the indicated compound (1-1000 nM), 10 nM PMA with different concentrations of bryostatin 1 (1-1000 nM) or 10 nM PMA with different concentrations of indicated compound (1-1000 nM). The number of attached and non-attached cells was counted and the number of total cells was expressed as % of control. The bars and error bars represent the average and the standard error of the mean of five independent experiments (FIGS. 8-10).
(§2) U937 cells (Sundstrom and Nilsson, 1976), purchased from ATCC (Manassas, Va.) and cultured in RPMI-1640 medium supplemented with 10% FBS (ATCC, Manassas, Va.), were plated in 35 mm dishes at a density of 1×10^5 living cells/ml and treated with different concentrations of the drugs or DMSO. After 72 hours, the number of cells in the supernatant (non-attached cells) and the number of attached cells (after trypsinization) were counted using a particle counter. The number of attached cells is expressed as percent of total cells.
U937 cells were treated with PMA (0.01-100 nM), bryostatin1 (0.1-1000 nM), analogue 12 (0.1-1000 nM), 10 nM PMA with different concentrations of bryostatin 1 (0.1-1000 nM) or 10 nM PMA with different concentrations of analogue 12 (0.1-1000 nM). The numbers of attached and non-attached cells were counted and the number of total cells was expressed as % of control. The bars and error bars represent the average and the standard error of the mean of at least three independent experiments.
as §2, with “U-937” for “U937”
as §1, with “U-937” for “U937”, “at least three” for “five”, “experiments.” for “experiments (FIGS. 8-10).”

[3] = tested on: cFos; assay: Induction of cFos in LNCaP cells (western blot); conditions: LNCaP cells treated 2, 5 or 8 hrs
Description: FIGS. 14A-C show the induction of cFos and phosphorylation of PKC at Y311 in LNCaP cells. […] The proteins from the lysates were separated by 10% SDS-PAGE, electroblotted to nitrocellulose membranes and probed with anti-cFos primary and anti-rabbit secondary antibodies, followed by ECL visualization. Data are representative of four independent experiments. […] The cFos signal was normalized to the β-actin signal to correct for loading and the response induced by 100 nM PMA at 2 hrs was taken as 100%. Data represent the means+SEM of four independent experiments. […] Data represent the means+SEM of three independent experiments.
LNCaP cells treated for 48 hours with the different drugs or with DMSO as control were washed and re-suspended in phosphate buffered saline. Yo-Pro-1 (Invitrogen, Carlsbad, Calif.) was added to a final concentration of 1 μM and the cells were incubated for 20 min at 4° C. in the dark. 7-Aminoactinomycin D (7-AAD) (Invitrogen, Carlsbad, Calif.) was then added at a 5 μg/mL final concentration 10 minutes before analysis by flow cytometry using the FACSCalibur system (Becton Dickinson, Mountain View, Calif.). Data were analyzed with FlowJo 7 (Tree Star Inc., Ashland, Oreg.). The Yo-Pro-1 positive cells were considered apoptotic and were expressed as % of total cells. […]

CCC/C=C/C=C/C(=O)O[C@H]1/C(=C/C(=O)OC)C[C@H]2C[C@H]([C@@H](C)O)OC(=O)C[C@H](O)C[C@@H]3C[C@H](OC(C)=O)C(C)(C)[C@](O)(C[C@@H]4C/C(=C/C(=O)OC)C[C@H](/C=C/C(C)(C)[C@]1(O)O2)O4)O3 [bryostatin 1]
persistence of cell flattening (early morphological response) ([1]; LNCaP cells, 0-9 hrs after treatment): had reversed by 6 hrs after treatment
block of PMA inhibition of U937 cell proliferation ([2]; 10 nM PMA with different concentrations of compound): able to block the effect of PMA in a dose dependent manner
inhibition of U937 cell proliferation [2]: not strongly antiproliferative
inhibition of U937 cell proliferation ([2]; listed as Bryostatin 1): much less effect on either response
time course of cFos induction [3]: largely lost by 5 hrs

CCCCCCCCCCCCCC(=O)O[C@@H]1[C@@H](C)[C@@]2(O)[C@@H](C=C(CO)C[C@]3(O)C(=O)C(C)=C[C@@H]23)[C@@H]2C(C)(C)[C@]12OC(C)=O [PMA]
persistence of cell flattening (early morphological response) [1]: still evident at 6 hrs but reversing by 9 hrs
inhibition of U937 cell proliferation [2]: inhibits cell proliferation
time course of cFos induction [3]: persisted for 5 hrs, with weak induction still evident at 8 hrs
